From US5639884A, “Arylidene-heterocyclic derivatives and process for their preparation” (Farmitalia Carlo Erba S.r.l., priority 1991, dated 1997) come the findings set out here.

This test has as its target p45 v-abl tyrosine kinase. As to the kind of experiment: Exogenous Substrate Kinase Assay: p45 v-abl kinase inhibition. In kind it is biochemical, Abelson murine leukemia virus. The settings on record: (Val^5)-Angiotensin II phosphorylation; 40 ng abl-kinase; peptide 2 mM, ATP 50 μM; pH 8.0, 30° C.; triplicate determinations. The source says: Tyrosine kinase purification. The enzyme used in our test was the p45 v-abl tyrosine kinase which represents the catalytic domaine of the Abelson tyrosine kinase (isolated from the Abelson murine leukemia virus). The p45 v-abl kinase was produced and isolated as described by Wang et al. in J. Biol. Chem. 260, 64 (1985) and by Ferguson et al. in J. Biol. Chem. 260, 3652 (1985) and in Biochem. J. 257, 321 (1989).
Exogenous Substrate Kinase Assay. (Val^5)-Angiotensin II phosphorylation was performed by incubation with 40 ng of purified abl-kinase and (γ-^32 P)-ATP, in 50 μl of buffer containing Tris-HCl 25 mM, pH 8.0, MgCl2 10 mM and dithiothreitol 0.1 mM (kinase buffer). The reaction mixture was incubated for the indicated time at 30° C. and the reaction stopped by adding 50 μl of 5% trichloroacetic acid. After a brief incubation on ice, tubes were centrifuged. The supernatants were spotted on phosphocellulose paper squares (Whatman P-81) and washed extensively in acetic acid. The radioactivity bound to dried phosphocellulose squares was measured in a liquid scintillation counter. IC50 values were calculated from triplicate determinations of each experimental point. Each inhibitor was tested at concentrations ranging from […] in the presence of fixed concentrations of peptide (2 mM) and ATP (50 μM).
In the case of `O=S1(=O)Nc2ccccc2C1=Cc1c[nH]c2ccccc12` [(E,Z)-3-(3'-indolyl)methylene-2,1-benzisothiazoline-2,2-dioxide], the 50% inhibitory concentration (IC50) stood at 113 µM.
To `O=C1NC(=O)c2ccccc2C1=Cc1ccnc2ccccc12` [4-(4'-quinolyl)methylenehomophthalimide, (E,Z) -4-(4'-quinolyl)-methylenehomophthalimide] belongs 15 µM; to `O=S1(=O)Nc2ccccc2C1=Cc1ccc(O)cc1` [(E,Z)-3-(4'-hydroxyphenyl)methylene-2,1-benzisothiazoline-2,2-dioxide], 17 µM.
The same measure for `O=C1NC(=O)c2ccccc2C1=Cc1ccc(O)cc1` [(E,Z)-4-(4'-hydroxyphenyl)methylenehomophthalimide]: 5 µM.

For orientation: IC50 means the concentration that inhibits the measured activity by half.
